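How tested: cells in 96-well plates exposed to compound for 48 hours at five concentrations. GI50 is the concentration that inhibits growth by half.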 Active and inactive are the calls of the source. Rule as the data show it: active = GI50 up to about 1.1 µM and inactive = higher.

Test systems include SNB-19; HT-29; UACC-257; HOP-92; BT-549; HCT-116; HOP-62; SK-MEL-2; SK-MEL-28; A549; OVCAR-4; RXF 393; K562; IGROV-1; KM12; M14; OVCAR-8; CCRF-CEM; MOLT-4; HL-60.
Assay in all cases: NCI-60 cell line screen, 48 h

As to `Cc1nc([N+](=O)[O-])cn1-c1nc2ccccn2c1[N+](=O)[O-]`, the GI50 in the test with SNB-19 is 80.2 µM (inactive); in the test on HT-29 it was 64.9 µM (inactive); with UACC-257, 99.3 µM (inactive); with HOP-92 it was > 100 µM (inactive); in the test on BT-549, > 100 µM (inactive); in the test with HCT-116, 74.3 µM (inactive). The GI50 in the test with HOP-62 was 55.1 µM (inactive); in the test with SK-MEL-2 it was 43.4 µM (inactive); in the test on SK-MEL-28, > 100 µM (inactive); in the test on A549, > 100 µM (inactive); in the test with OVCAR-4 it was > 100 µM (inactive); with RXF 393, 17.7 µM (inactive). Moreover, the GI50 in the test on K562 is 80.4 µM (inactive); in the test with IGROV-1, 68.9 µM (inactive); in the test with KM12, 48.8 µM (inactive); in the test with M14, > 100 µM (inactive); in the test with OVCAR-8, 86.1 µM (inactive).
On to `Nc1ccn([C@H]2CO[C@@H](CO)[C@@H]2O)c(=O)n1`, for which the GI50 with HT-29, in the test with UACC-257, with HOP-92, in the test on BT-549, with HCT-116 and in the test on CCRF-CEM was > 100 µM (inactive) throughout. The GI50 in the test on HOP-62, in the test with SK-MEL-2, with SK-MEL-28, in the test with OVCAR-4, in the test on RXF 393 and in the test on K562 was > 100 µM (inactive) throughout. Also, the GI50 in the test with IGROV-1, in the test with KM12 and in the test with MOLT-4 was > 100 µM (inactive) each time.
Consider `CCn1c(SCC(=O)NNC(=S)Nc2ccc(C)cc2)nc2ccccc2c1=O`, for which the GI50 in the test on SNB-19, with HT-29, with UACC-257, in the test with BT-549, in the test on HCT-116 and in the test on CCRF-CEM was > 100 µM (inactive) throughout. Further, the GI50 is > 100 µM (inactive) in the test with HOP-62; > 100 µM (inactive) in the test with SK-MEL-2; > 100 µM (inactive) in the test on SK-MEL-28; > 100 µM (inactive) in the test with A549; 78.9 µM (inactive) with OVCAR-4; > 100 µM (inactive) with RXF 393. For the same compound, the GI50 in the test with K562 was 51.9 µM (inactive); in the test on IGROV-1 it was > 100 µM (inactive); with HL-60 it was > 100 µM (inactive); with KM12, > 100 µM (inactive); in the test on M14 it was > 100 µM (inactive); in the test with MOLT-4, 27.1 µM (inactive). Further, the GI50 with OVCAR-8 is > 100 µM (inactive).
For the compound `c1ccc(/C(=N/Nc2nc3ccccc3s2)C2CCCCC2)nc1`, the GI50 in the test on SNB-19 is 13.2 µM (inactive); in the test with HT-29, 0.569 µM (active); in the test with UACC-257, 4.32 µM (inactive); in the test with HOP-92 it was 7.48 µM (inactive); with BT-549 it was 18.6 µM (inactive); in the test on HCT-116, 0.296 µM (active). Besides, the GI50 is 1.98 µM (inactive) in the test on CCRF-CEM; 9.46 µM (inactive) in the test with HOP-62; 15.7 µM (inactive) with SK-MEL-2; 10.4 µM (inactive) in the test on SK-MEL-28; 16.9 µM (inactive) in the test on A549; 9.79 µM (inactive) with OVCAR-4. Also, the GI50 in the test on RXF 393 is 11.7 µM (inactive); in the test on K562, 7.05 µM (inactive); in the test on IGROV-1, 4.43 µM (inactive); with KM12, 10 µM (inactive); with M14, 10.3 µM (inactive); with MOLT-4, 0.203 µM (active). Further, the GI50 with OVCAR-8 was 4.16 µM (inactive).
`O=c1[nH]c(=O)n(C2COC(CO)C2O)cc1F` (configuration not stated): the GI50 in the test on SNB-19 is > 100 µM (inactive); with HT-29, 39 µM (inactive); in the test on UACC-257, 60.4 µM (inactive); in the test on HOP-92 it was 50.8 µM (inactive); in the test on BT-549 it was 32.7 µM (inactive); in the test on HCT-116, 9.98 µM (inactive). Moreover, the GI50 in the test on CCRF-CEM was 74.8 µM (inactive); with HOP-62 it was 17.7 µM (inactive); in the test on SK-MEL-2, 61.4 µM (inactive); in the test on SK-MEL-28 it was 26.7 µM (inactive); in the test on A549, 17.3 µM (inactive); with OVCAR-4 it was > 100 µM (inactive). Moreover, the GI50 is 2.94 µM (inactive) in the test with RXF 393; 56.5 µM (inactive) in the test with K562; 32.4 µM (inactive) in the test with IGROV-1; > 100 µM (inactive) with KM12; 50.6 µM (inactive) with M14; 39 µM (inactive) with MOLT-4. Moreover, the GI50 in the test with OVCAR-8 was 57 µM (inactive).
In the case of `C/C=C/C=C/c1nc(C#N)c(N)o1`, the GI50 in the test with SNB-19, in the test on HT-29, with UACC-257, in the test with HOP-92, in the test with BT-549 and in the test on HCT-116 was > 100 µM (inactive) each time. Moreover, the GI50 with CCRF-CEM was 7.08 µM (inactive); in the test on HOP-62, > 100 µM (inactive); in the test on SK-MEL-2 it was > 100 µM (inactive); with SK-MEL-28, > 100 µM (inactive); with A549 it was 99.3 µM (inactive); with OVCAR-4, > 100 µM (inactive). Moreover, the GI50 was > 100 µM (inactive) in the test on RXF 393; > 100 µM (inactive) in the test with K562; > 100 µM (inactive) with IGROV-1; > 100 µM (inactive) in the test on M14; 63.8 µM (inactive) in the test with MOLT-4; > 100 µM (inactive) in the test with OVCAR-8.
As to `O=c1[nH]c2nccn2c2c1SCCN2`, the GI50 in the test with SNB-19, with HT-29, in the test with UACC-257, with BT-549, with HCT-116 and in the test with CCRF-CEM was > 100 µM (inactive) each time. Further, the GI50 in the test with HOP-62, with SK-MEL-2, in the test with SK-MEL-28, in the test on A549, in the test with OVCAR-4 and in the test with RXF 393 was > 100 µM (inactive) throughout. Moreover, the GI50 in the test on K562, in the test on IGROV-1, with HL-60, in the test with KM12, in the test on M14 and with MOLT-4 was > 100 µM (inactive) throughout. In the test with OVCAR-8, the GI50 was > 100 µM (inactive).
Consider `COC(=O)C1=C(OC(=O)/C(=C/c2c(F)cccc2F)c2ccccc2)C(C(=O)OC)[C@@]2(O)[C@@H](C(=O)OC)[C@H](C)C[C@@H]1[C@@H]2C(=O)OC` (some centres not stated), for which the GI50 with SNB-19, with HT-29, with UACC-257, in the test with BT-549, with HCT-116 and with CCRF-CEM was > 100 µM (inactive) each time. Also, the GI50 in the test with HOP-62 was > 100 µM (inactive); in the test with SK-MEL-2, > 100 µM (inactive); in the test with SK-MEL-28, > 100 µM (inactive); with A549 it was 86.3 µM (inactive); with OVCAR-4, > 100 µM (inactive); with RXF 393 it was > 100 µM (inactive). Moreover, the GI50 with K562 was > 100 µM (inactive); with IGROV-1, 59.4 µM (inactive); in the test with HL-60 it was > 100 µM (inactive); in the test with KM12 it was > 100 µM (inactive); in the test with M14, > 100 µM (inactive); in the test with MOLT-4, > 100 µM (inactive). The GI50 with OVCAR-8 is > 100 µM (inactive).
As for `O=[N+]([O-])/C(C(Cl)=C(Cl)Cl)=C(\N1CCCCC1)n1nnc2ccccc21`, the GI50 is 20.9 µM (inactive) in the test on SNB-19; 19.5 µM (inactive) with HT-29; 17.9 µM (inactive) in the test with UACC-257; 19.3 µM (inactive) in the test on HOP-92; 23.3 µM (inactive) in the test with BT-549; 18.9 µM (inactive) in the test on HCT-116. Besides, the GI50 in the test with HOP-62 was 22.2 µM (inactive); in the test on SK-MEL-2, 17.1 µM (inactive); in the test on SK-MEL-28 it was 22.3 µM (inactive); in the test on A549, 22.6 µM (inactive); in the test on OVCAR-4, 47.1 µM (inactive); in the test with RXF 393, 16.3 µM (inactive). The GI50 was 8.41 µM (inactive) in the test on K562; 16.2 µM (inactive) in the test with IGROV-1; 25.8 µM (inactive) in the test on KM12; 17.3 µM (inactive) with M14; 0.443 µM (active) with MOLT-4; 19.9 µM (inactive) with OVCAR-8.
Take `COCN1C(=O)[C@@H]2C[C@@H](OC/C=C/CBr)CN2C(=O)c2ccccc21`: the GI50 with SNB-19 was 21.3 µM (inactive); in the test with HT-29, 20.2 µM (inactive); in the test with UACC-257, 16.5 µM (inactive); with BT-549, 26.7 µM (inactive); in the test with HCT-116 it was 13.2 µM (inactive); with CCRF-CEM, 5.77 µM (inactive). The GI50 in the test on HOP-62 is 22.7 µM (inactive); in the test with SK-MEL-2, 29.7 µM (inactive); in the test on SK-MEL-28 it was 18.9 µM (inactive); in the test on A549 it was 17.1 µM (inactive); in the test on OVCAR-4, 14.6 µM (inactive); with RXF 393 it was 14 µM (inactive). Also, the GI50 is 9.23 µM (inactive) in the test with IGROV-1; 6.27 µM (inactive) in the test with HL-60; 22 µM (inactive) with KM12; 16.1 µM (inactive) with M14; 17.7 µM (inactive) in the test on MOLT-4; 14.5 µM (inactive) in the test with OVCAR-8.
Regarding `Cc1nc2ccc(NC(=S)Nc3ccccc3)cc2c(=O)n1-c1ccccc1`, the GI50 in the test on SNB-19, in the test with HT-29, with UACC-257, with BT-549, in the test on HCT-116 and in the test on HOP-62 was > 100 µM (inactive) each time. For the same compound, the GI50 is 16.6 µM (inactive) in the test with SK-MEL-2; 62.2 µM (inactive) in the test with SK-MEL-28; > 100 µM (inactive) in the test with OVCAR-4; > 100 µM (inactive) in the test with RXF 393; 46.3 µM (inactive) with K562; > 100 µM (inactive) in the test on IGROV-1. Also, the GI50 was 31.8 µM (inactive) in the test with HL-60, > 100 µM (inactive) with KM12, 48.9 µM (inactive) in the test on MOLT-4 and > 100 µM (inactive) in the test on OVCAR-8.

These data come from ChEMBL document CHEMBL1201862, “PubChem BioAssay data set” (2004).
